Measurements from EP4725957A1, “GROUP OF CYCLIC ALKALINE LIPOPEPTIDE COMPOUNDS, AND PREPARATION METHOD THEREFOR AND USE THEREOF” (Institute of Medicinal Biotechnology, Chinese Academy of …, priority 2023, dated 2024).
Converted amounts (≈) assume the structure as drawn. Where two headings read alike, the source gives them in different places. Bridge positions count the residues as written; N and C are the ends. Square brackets hold non-standard residues; d marks the D form. Peptide text beside a SMILES is read from it. * marks the point of attachment. Dab(CH2SO3H) = N[C@@H](CCNCS(=O)(=O)O)C(=O)O; Heptanoyl(6-Me) = CC(C)CCCCC(=O)*; dOrn = NCCC[C@@H](N)C(=O)O; Nonanoyl = CCCCCCCCC(=O)*; X1 = CC[C@H](C)CCCCC(=O)*; Heptanoyl = CCCCCCC(=O)*; Octanoyl = CCCCCCCC(=O)*; Orn = NCCC[C@H](N)C(=O)O; dDap = NC[C@@H](N)C(=O)O; Dab = NCC[C@H](N)C(=O)O; Dap = NC[C@H](N)C(=O)O

Legend:
Type in all cases: cell-based
[1] = Nephrotoxicity assay: in vitro cytotoxicity of HK-2 cells by CCK-8 assay; settings: human, HK-2 cells (human renal), 72 h incubation with drug-containing medium
In short: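 Compounds in sterile water, diluted to final 500, 250, 200, 100, 50, 25 and 12.5 µg/mL, were applied for 72 h to human HK-2 kidney cells. Absorbance at 450 nm after 3 h CCK-8 gave viability against untreated wells, and IC50 came from logarithmic regression; three replicates.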

[2] = tested on: Acinetobacter baumannii ABA19-1
In short: (§1)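 Per CLSI, bacteria at a final (2-4) × 10^5 CFU/mL were exposed in Mueller-Hinton broth to two-fold compound series (final 64 down to 0.03 mg/L). MIC read after 16-20 h at 35-37°C in sealed plates.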

[3] = tested on: Pseudomonas aeruginosa ATCC 27853
In short: as §1

[4] = tested on: Escherichia coli ATCC BAA-2523
In short: as §1

[5] = tested on: Klebsiella pneumoniae KPN+19-15
In short: as §1

[6] = tested on: Escherichia coli ATCC BAA-2340 (KPC)
In short: as §1

[7] = tested on: Acinetobacter baumannii NCTC 13304 (OXA-27)
In short: as §1

[8] = tested on: Pseudomonas aeruginosa PAE19-3
In short: as §1

[9] = tested on: Klebsiella pneumoniae ATCC BAA-1705 (KPC)
In short: as §1

| Compound | IC50 at 72 h [1] [µg/mL] | MIC ([2]; ABA19-1) [µg/mL] | MIC ([3]; ATCC 27853) [µg/mL] | MIC ([4]; ATCC BAA-2523) [µg/mL] | MIC ([5]; KPN+19-15) [µg/mL] | MIC ([6]; ATCC BAA-2340) [µg/mL] | MIC ([7]; NCTC 13304) [µg/mL] | MIC ([8]; PAE19-3) [µg/mL] | MIC ([9]; ATCC BAA-1705) [µg/mL] | MIC ([2]; Acinetobacter baumannii ABA19-1) [µg/mL] | MIC ([3]; Pseudomonas aeruginosa ATCC27853) [µg/mL] | MIC ([4]; Escherichia coli ATCC BAA-2523) [µg/mL] | MIC ([5]; Klebsiella pneumoniae KPN 19-15) [µg/mL] | MIC ([6]; Escherichia coli ATCC BAA-2340 (KPC)) [µg/mL] | MIC ([7]; Acinetobacter baumannii NCTC 13304 (OXA-27)) [µg/mL] | MIC ([8]; Pseudomonas aeruginosa PAE19-3) [µg/mL] | MIC ([9]; Klebsiella pneumoniae ATCC BAA-1705 (KPC)) [µg/mL] |
| --- | --- | --- | --- | --- | --- | --- | --- | --- | --- | --- | --- | --- | --- | --- | --- | --- | --- |
| CC(C)CCCCC(=O)N[C@@H](CCN)C(=O)N[C@H](C(=O)N[C@H](CO)C(=O)N[C@H]1CCNC(=O)[C@H]([C@@H](C)O)NC(=O)[C@H](CCCN)NC(=O)[C@H](CCN)NC(=O)[C@H]([C@@H](C)O)NC(=O)[C@@H](Cc2ccccc2)NC(=O)[C@H](CCN)NC1=O)[C@@H](C)O [Compound 87, 6-methylheptanoyl-Dab-Thr-D-Ser-ring(4-10)[Dab-Dab-D-Phe-Thr-Dab-Orn-Thr]] ({Heptanoyl(6-Me)}-[Dab]T[dS][Dab][Dab][dF]T[Dab][Orn]T; lactam 4-C) | > 500 | 0.06 (≈ 0.0509 µM) | >64 | 0.03 (≈ 0.0255 µM) | 0.5 (≈ 0.424 µM) | 0.03 (≈ 0.0255 µM) | ≤0.03 | 64 (≈ 54.3 µM) | 0.25 (≈ 0.212 µM) |  |  |  |  |  |  |  |  |
| CCCCCCCCC(=O)N[C@@H](CCN)C(=O)N[C@H](C(=O)N[C@@H](CN)C(=O)N[C@H]1CCNC(=O)[C@H]([C@@H](C)O)NC(=O)[C@H](CCN)NC(=O)[C@H](CCN)NC(=O)[C@H]([C@@H](C)O)NC(=O)[C@@H](Cc2ccccc2)NC(=O)[C@H](CCN)NC1=O)[C@@H](C)O [Compound 10, Nonanoyl-Dab-Thr-Dap-ring(4-10)[Dab-Dab-D-Phe-Thr-Dab-Dab-Thr]] (Nonanoyl-[Dab]T[Dap][Dab][Dab][dF]T[Dab][Dab]T; lactam 4-C) | 350 ± 30.7 (≈ 297 µM) | 0.06 (≈ 0.051 µM) | 0.25 (≈ 0.212 µM) | 0.06 (≈ 0.051 µM) | 0.06 (≈ 0.051 µM) | 0.06 (≈ 0.051 µM) | 0.06 (≈ 0.051 µM) | 0.5 (≈ 0.425 µM) | 0.06 (≈ 0.051 µM) |  |  |  |  |  |  |  |  |
| CCCCCCC(=O)N[C@@H](CCN)C(=O)N[C@H](C(=O)N[C@H](CCCN)C(=O)N[C@H]1CCNC(=O)[C@H]([C@@H](C)O)NC(=O)[C@H](CCN)NC(=O)[C@H](CCN)NC(=O)[C@H]([C@@H](C)O)NC(=O)[C@@H](Cc2ccccc2)NC(=O)[C@H](CCN)NC1=O)[C@@H](C)O [Compound 24, Heptanoyl-Dab-Thr-D-Orn-ring(4-10)[Dab-Dab-D-Phe-Thr-Dab-Dab-Thr]] (Heptanoyl-[Dab]T[dOrn][Dab][Dab][dF]T[Dab][Dab]T; lactam 4-C) | > 500 | 0.125 (≈ 0.106 µM) | 0.5 (≈ 0.425 µM) | ≤0.03 | 0.125 (≈ 0.106 µM) | ≤0.03 | 0.06 (≈ 0.051 µM) | 2 (≈ 1.7 µM) | 0.06 (≈ 0.051 µM) |  |  |  |  |  |  |  |  |
| CC(C)CCCCC(=O)N[C@@H](CCN)C(=O)N[C@H](C(=O)N[C@H](CO)C(=O)N[C@H]1CCNC(=O)[C@H]([C@@H](C)O)NC(=O)[C@H](CCNCS(=O)(=O)O)NC(=O)[C@H](CCN)NC(=O)[C@H]([C@@H](C)O)NC(=O)[C@@H](Cc2ccccc2)NC(=O)[C@H](CCN)NC1=O)[C@@H](C)O [Compound 111, 6-methylheptanoyl-Dab-Thr-D-Ser-ring(4-10)[Dab-Dab-D-Phe-Thr-Dab-Dab(CH2SO3H)-Thr]] ({Heptanoyl(6-Me)}-[Dab]T[dS][Dab][Dab][dF]T[Dab][Dab(CH2SO3H)]T; lactam 4-C) | > 500 | 0.25 (≈ 0.199 µM) | 0.25 (≈ 0.199 µM) | 0.06 (≈ 0.0477 µM) | 0.125 (≈ 0.0993 µM) | 0.06 (≈ 0.0477 µM) | 0.06 (≈ 0.0477 µM) | 0.5 (≈ 0.397 µM) | 0.125 (≈ 0.0993 µM) |  |  |  |  |  |  |  |  |
| CC(C)CCCCC(=O)N[C@@H](CCN)C(=O)N[C@H](C(=O)N[C@H](CO)C(=O)N[C@H]1CCNC(=O)[C@H]([C@@H](C)O)NC(=O)[C@H](CCN)NC(=O)[C@H](CN)NC(=O)[C@H]([C@@H](C)O)NC(=O)[C@@H](Cc2ccccc2)NC(=O)[C@H](CCN)NC1=O)[C@@H](C)O [Compound 72, 6-methylheptanoyl-Dab-Thr-D-Ser-ring(4-10)[Dab-Dab-D-Phe-Thr-Dap-Dab-Thr]] ({Heptanoyl(6-Me)}-[Dab]T[dS][Dab][Dab][dF]T[Dap][Dab]T; lactam 4-C) | > 500 | 0.06 (≈ 0.0522 µM) | >64 | ≤0.03 | 0.5 (≈ 0.435 µM) | ≤0.03 | ≤0.03 | 64 (≈ 55.6 µM) | 0.25 (≈ 0.217 µM) |  |  |  |  |  |  |  |  |
| CC[C@H](C)CCCCC(=O)N[C@@H](CCN)C(=O)N[C@H](C(=O)N[C@@H](CCCN)C(=O)N[C@H]1CCNC(=O)[C@H]([C@@H](C)O)NC(=O)[C@H](CCN)NC(=O)[C@H](CCN)NC(=O)[C@H](CC(C)C)NC(=O)[C@@H](Cc2ccccc2)NC(=O)[C@H](CCN)NC1=O)[C@@H](C)O [Compound 46, (S)-6-methyloctanoyl-Dab-Thr-Orn-ring(4-10)[Dab-Dab-D-Phe-Leu-Dab-Dab-Thr]] (X1-[Dab]T[Orn][Dab][Dab][dF]L[Dab][Dab]T; lactam 4-C) | 287 ± 10.7 (≈ 236 µM) | 0.125 (≈ 0.103 µM) | ≤0.03 | 0.03 (≈ 0.0246 µM) | ≤0.03 | 0.03 (≈ 0.0246 µM) | 0.06 (≈ 0.0493 µM) | 0.25 (≈ 0.205 µM) | ≤0.03 |  |  |  |  |  |  |  |  |
| CCCCCCCC(=O)N[C@@H](CCN)C(=O)N[C@H](C(=O)N[C@H](CN)C(=O)N[C@H]1CCNC(=O)[C@H]([C@@H](C)O)NC(=O)[C@H](CCN)NC(=O)[C@H](CCN)NC(=O)[C@H](CC(C)C)NC(=O)[C@@H](Cc2ccccc2)NC(=O)[C@H](CCN)NC1=O)[C@@H](C)O [Compound 33, Octanoyl-Dab-Thr-D-Dap-ring(4-10)[Dab-Dab-D-Phe-Leu-Dab-Dab-Thr]] (Octanoyl-[Dab]T[dDap][Dab][Dab][dF]L[Dab][Dab]T; lactam 4-C) | 339 ± 9.1 (≈ 289 µM) |  |  |  |  |  |  |  |  | 0.03 (≈ 0.0255 µM) | 0.03 (≈ 0.0255 µM) | 0.03 (≈ 0.0255 µM) | 0.03 (≈ 0.0255 µM) | 0.03 (≈ 0.0255 µM) | 0.03 (≈ 0.0255 µM) | 0.25 (≈ 0.213 µM) | 0.03 (≈ 0.0255 µM) |
| CC(C)CCCCC(=O)N[C@@H](CCN)C(=O)N[C@H](C(=O)N[C@@H](CN)C(=O)N[C@H]1CCNC(=O)[C@H]([C@@H](C)O)NC(=O)[C@H](CCN)NC(=O)[C@H](CCN)NC(=O)[C@H]([C@@H](C)O)NC(=O)[C@@H](Cc2ccccc2)NC(=O)[C@H](CCNCS(=O)(=O)O)NC1=O)[C@@H](C)O [Compound 118, 6-methylheptanoyl-Dab-Thr-Dap-ring(4-10)[Dab-Dab(CH2SO3H)-D-Phe-Thr-Dab-Dab-Thr]] ({Heptanoyl(6-Me)}-[Dab]T[Dap][Dab][Dab(CH2SO3H)][dF]T[Dab][Dab]T; lactam 4-C) | > 500 | 0.25 (≈ 0.199 µM) | 0.25 (≈ 0.199 µM) | 0.06 (≈ 0.0477 µM) | 0.125 (≈ 0.0994 µM) | 0.06 (≈ 0.0477 µM) | 0.06 (≈ 0.0477 µM) | 0.5 (≈ 0.398 µM) | 0.125 (≈ 0.0994 µM) |  |  |  |  |  |  |  |  |
